Results as given in patent US20140249141A1, “1,4-DIAZABICYCLO[3.2.2]NONANES AS NEURONAL NICOTINIC ACETYLCHOLINE RECEPTOR LIGANDS” (Targacept, Inc., priority 2011, published 2014).
“Also recorded” adds a separate entry of the source. Where two headings read alike, the source gives them in different places.

Key:
human α4β2 = target: T1, human α4β2 (Homo sapiens, UniProt P17787+P43681); assay: Competition binding to human α4β2 nicotinic receptor in membrane preparations
T1 construct: expressed in transfected cells; membranes prepared from the cells
Protocol: (§1) SH-EP1/human α4β2 (Eaton et al., 2003), SH-EP1/human α4β4 (Gentry et al., 2003), SH-EP1/α6β3β4α5 (Grinevich et al., 2005), TE671/RD and SH-SY5Y cell lines (obtained from Dr. Ron Lukas, Barrow Neurological Institute, St. Joseph's Hospital and Medical Center, Phoenix, Ariz.) were maintained in proliferative growth phase in Dulbecco's modified Eagle's medium (Gibco/BRL) with 10% horse serum (Gibco BRL), 5% fetal bovine serum (HyClone, Logan Utah), 1 mM sodium pyruvate, 4 mM L-glutamine. For maintenance of stable transfectants, the α4β2 and α4β4 cell media was supplemented with 0.25 mg/mL zeocin and 0.13 mg/mL hygromycin B. Selection was maintained for the α6β3β4α5 cells with 0.25 mg/mL of zeocin, 0.13 mg/mL of hygromycin B, 0.4 mg/mL of geneticin, and 0.2 mg/mL of blasticidin. HEK/human α7/RIC3 cells (obtained from J. Lindstrom, U. Pennsylvania, Philadelphia, Pa.) were maintained in proliferative growth phase in Dulbecco's modified Eagle's medium (Gibco/BRL) with 10% fetal bovine serum (HyClone, Logan Utah), 1 mM sodium pyruvate, 4 mM L-glutamine, 0.4 mg/mL geneticin; 0.2 mg/ml hygromycin B.
(§2) Cells were harvested in ice-cold PBS, pH 7.4, then homogenized with a polytron (Brinkmann Instruments, Westbury, N.Y.). Homongenates were centrifuged at 40,000 g for 20 minutes (4° C.). The pellet was resuspended in PBS and protein concentration determined using the Pierce BCA Protein Assay kit (Pierce Biotechnology, Rockford, Ill.).
(§3) Binding to nicotinic receptors was assayed on membranes using standard methods adapted from published procedures (Lippiello and Fernandes, 1986; Davies et al., 1999). In brief, membranes were reconstituted from frozen stocks (approximately 0.2 mg protein) and incubated for 2 h on ice in […] assay buffer (PBS) in the presence of competitor compound (0.001 nM to 100 mM) and radioligand. […] Filters were washed 3 times and the radioactivity retained was determined by liquid scintillation counting.
(§4) Binding data were expressed as percent total control binding. […] Ki was calculated using the Cheng-Prusoff equation (Cheng and Prusoff, 1973).

human α7 = target: T2, human α7 (Homo sapiens, UniProt P36544); assay: Competition binding to human α7 nicotinic receptor in membrane preparations
T2 construct: expressed in transfected cells; host or cells: HEK cells expressing human α7 and RIC3, obtained from J. Lindstrom, U. Pennsylvania; membranes prepared from the cells
Protocol: as §1, §2, §3, §4

ova-challenged mice = assay: Ovalbumin-induced lung inflammation (allergic asthma) model, airway hyperresponsiveness; format: in vivo; details: FIGS. 1 and 2, compared to control
From the text: Ovalbumin-induced allergic asthma is a widely used model to reproduce the airway eosinophilia, pulmonary inflammation and elevated IgE levels found during asthma. Studies can be run with or without airway hyper-responsiveness (AHR) measurements. Allergic asthma is typically triggered by allergens in the air such as pollen, mold, dust mites, etc., and is commonly characterized by reversible […], elevated levels of IgE causing mast cell activation, chronic airway inflammation, and airway hyper-responsiveness (AHR). The immunological processes involved are characterized by proliferation and activation of Th2 lymphocytes, setting off an allergic cascade.
FIGS. 1 and 2 illustrate Compound A and Control compounds in the ovalbumin-induced lung inflammation model. For detailed procedures, see Hamelmann E, Schwarze J, Takeda K, Oshiba A, Larsen G L, Irvin C G, and Gelfand E W. Noninvasive measurement of airway responsiveness in allergic mice using barometric plethysmography. Am. J. Respir. Crit. Care Med 156: 766-775, 1997, herein incorporated by reference.

[1] = SH-EP1/human α4β2 cell membranes, [3H]-nicotine, Cheng-Prusoff, read-out: Human α4β2 Ki

Structure (SMILES)	Ki (human α4β2; [1]) [nM]	Ki (human α7; HEK/human α7/RIC3 cell membranes, [3H]-epibatidine, Cheng-Prusoff, read-out: Human α7 Ki) [nM]	Ki (human α4β2) [nM]	Ki (human α7) [nM]	methacholine (MCh)-induced bronchoconstriction (Penh, index of airway resistance) (ova-challenged mice)
O=c1cc(N2CCN3CCC2CC3)nc2cc(-c3ccccc3)on12	1200	280			
O=c1cc(N2CCN3CCC2CC3)nc2c3ccccc3on12			1200	55	
Cc1cc2nc(N3CCN4CCC3CC4)cc(=O)n2o1 [Compound A, 5-(1,4-diazabicyclo[3.2.2]nonan-4-yl)-2-methyl-7H-isoxazolo[2,3-a]pyrimidin-7-one]					statistically significant results; also recorded: reduces methacholine (MCh)-induced bronchoconstriction
Cc1cc2nc(N3CCN4CCC3CC4)cc(=O)n2o1 [drawing 5]	3200			42	
